Results taken from the supplement of paper PMC10307832.

What was measured:
Assay in all cases: relative viability (nuclei count vs DMSO), 5 days (fraction); higher = more cells survive
[1] = compound: Cc1nc(Nc2ncc(C(=O)Nc3c(C)cccc3Cl)s2)cc(N2CCN(CCO)CC2)n1 [Dasatinib] + C[C@@H](Oc1cc(-c2cnn(C3CCNCC3)c2)cnc1N)c1c(Cl)ccc(F)c1Cl [Crizotinib] (partner 1 µM)
In short: (§1)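 Lung cancer cell lines, seeded in 1536-well plates, were treated the following day by pin tool with a single drug or with five library-drug doses (not always all listed) in √10 steps on top of a fixed anchor-drug dose. Cells were fixed and nuclei stained in one step after 5 days, and nuclei were counted. Relative viability is the nuclei count for treated wells divided by that for vehicle wells, reported as medians of duplicate plates.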

[2] = compound: C1CC1C(=O)NC2=NNC3=C2C=CC(=C3)C4=CC(=CC=C4)C(=O)NC5CC5 [XMD13-2] + Nc1nc2[nH]cc(CCc3ccc(C(=O)N[C@@H](CCC(=O)O)C(=O)O)cc3)c2c(=O)[nH]1 [Pemetrexed] (partner 0.2 µM)
In short: as §1

[3] = compound: C1CC1C(=O)NC2=NNC3=C2C=CC(=C3)C4=CC(=CC=C4)C(=O)NC5CC5 [XMD13-2] + CS(=O)(=O)N1CCN(Cc2cc3nc(-c4cccc5[nH]ncc45)nc(N4CCOCC4)c3s2)CC1 [Pictilisib] (partner 1 µM)
In short: as §1

[4] = compound: Cc1nc(Nc2ncc(C(=O)Nc3c(C)cccc3Cl)s2)cc(N2CCN(CCO)CC2)n1 [Dasatinib] + COc1cc2c(Oc3ccc(NC(=O)C4(C(=O)Nc5ccc(F)cc5)CC4)cc3F)ccnc2cc1OCCCN1CCOCC1 [Foretinib] (partner 0.25 µM)
In short: as §1

Cell Line | relative viability ([1]; first compound 0.005 µM) | relative viability ([1]; first compound 0.01581 µM) | relative viability ([1]; first compound 0.05 µM) | relative viability ([1]; first compound 0.1581 µM) | relative viability ([1]; first compound 0.5 µM) | relative viability ([2]; first compound 0.05 µM) | relative viability ([2]; first compound 0.1581 µM) | relative viability ([2]; first compound 0.5 µM) | relative viability ([2]; first compound 1.581 µM) | relative viability ([2]; first compound 5 µM) | relative viability ([3]; first compound 0.05 µM) | relative viability ([3]; first compound 0.1581 µM) | relative viability ([3]; first compound 0.5 µM) | relative viability ([3]; first compound 1.581 µM) | relative viability ([3]; first compound 5 µM) | relative viability ([4]; first compound 0.005 µM) | relative viability ([4]; first compound 0.01581 µM) | relative viability ([4]; first compound 0.05 µM) | relative viability ([4]; first compound 0.1581 µM) | relative viability ([4]; first compound 0.5 µM)
NCI-H2228 | 0.296 | 0.431 | 0.257 | 0.152 | 0.17 | 0.354 | 0.315 | 0.339 | 0.31 | 0.27 | 0.44 | 0.452 | 0.566 | 0.351 | 0.402 | 0.853 | 0.614 | 0.766 | 0.51 | 0.407
NCI-H2347 | 0.316 | 0.397 | 0.355 | 0.301 | 0.369 | 0.458 | 0.443 | 0.446 | 0.453 | 0.45 | 0.743 | 0.655 | 0.826 | 0.827 | 0.387 | 0.625 | 0.504 | 0.436 | 0.378 | 0.495
NCI-H2405 | 0.698 | 0.568 | 0.493 | 0.258 | 0.194 | 1.18 | 1.02 | 1.11 | – | 1.07 | 0.539 | 0.543 | 0.434 | 0.389 | 0.474 | 0.983 | 0.714 | 0.564 | 0.304 | 0.233
NCI-H3122 | 0.261 | 0.332 | 0.347 | 0.253 | 0.223 | 0.193 | 0.195 | 0.199 | 0.199 | 0.195 | 0.655 | 0.598 | 0.585 | 0.662 | 0.505 | 0.932 | 0.871 | 0.955 | 0.942 | 0.567
PC-3 [JPC-3] | 0.996 | 0.986 | 1.11 | 0.955 | 0.63 | 1.23 | 1.04 | 1.14 | – | 1.12 | 0.746 | 0.733 | 0.777 | 0.747 | 0.724 | 1.05 | 1.02 | 1.05 | 0.948 | 0.434
PC-14 | 0.94 | 0.975 | 0.855 | 0.448 | 0.113 | 0.14 | 0.131 | 0.118 | 0.148 | 0.13 | 0.995 | 0.684 | 0.67 | 0.608 | 0.766 | 0.981 | 0.948 | 0.912 | 0.712 | 0.335
RERF-LC-KJ | 0.839 | 0.977 | 0.832 | 0.75 | 0.764 | 0.478 | 0.425 | 0.476 | 0.385 | 0.463 | 0.57 | 0.558 | 0.435 | 0.571 | 0.5 | 0.888 | 0.831 | 0.989 | 0.824 | 0.779
SK-LU-1 | 0.558 | 0.417 | 0.35 | 0.251 | 0.251 | 0.997 | 0.964 | 1.01 | 0.977 | 0.948 | 0.604 | 0.671 | 0.658 | 0.563 | 0.502 | 0.543 | 0.343 | 0.295 | 0.171 | 0.179
SK-MES-1 | 0.968 | 0.937 | 0.93 | 0.372 | 0.212 | 1.01 | 0.894 | 0.911 | 0.909 | 0.864 | 0.408 | 0.422 | 0.333 | 0.365 | 0.349 | 1.01 | 0.73 | 0.687 | 0.482 | 0.231
SW 1573 | 0.826 | 0.689 | 0.624 | 0.429 | 0.356 | 0.831 | 0.847 | 0.788 | 0.79 | 0.814 | 0.57 | 0.525 | 0.476 | 0.466 | 0.272 | 1.05 | 0.746 | 0.783 | 0.695 | 0.525
